# Source: PubChem BioAssay AID1963422 (Molecular Pharmacology Branch, DTP, NCI, 2024)
# System: 463943-066-T-J2-PDC complex spheroid growth
# Assay: Anticancer human tumor 463943-066-T-J2-PDC patient-derived colon adenocarcinoma cell line growth inhibition [Asc]
# Details: for IC50: curve of first compound; for viability, T/C: stronger effect = lower value
# In short: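 Spheroid model: tumor line + HUVEC + hMSC. Single agents and combinations; top conc. at/near clinical Cmax (10 microM if undetermined), half-log dilutions. DMSO stocks at 800-fold test concentration.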
# [1] = second compound 0.0316 µM, first compound 0.0316 µM
# [2] = second compound 0.0316 µM, first compound 0.1 µM
# [3] = second compound 0.1 µM, first compound 0.0316 µM
# [4] = second compound 0.1 µM, first compound 0.1 µM
# [5] = second compound 0.316 µM, first compound 0.0316 µM
# [6] = second compound 0.316 µM, first compound 0.1 µM
# [7] = second compound 1 µM, first compound 0.0316 µM
# [8] = second compound 1 µM, first compound 0.1 µM
# [9] = second compound 3.16 µM, first compound 0.0316 µM
# [10] = second compound 3.16 µM, first compound 0.1 µM
# [11] = second compound 10 µM, first compound 0.0316 µM
# [12] = second compound 10 µM, first compound 0.1 µM
# 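Also: compound exposure lasted 7 days.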
# 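For viability, T/C in this document: 100% = DMSO vehicle control wells.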
smiles,measurement,setting,value
Cc1nc(N2CCC3(CC2)COC(C)C3N)c(CO)nc1Sc1ccnc(N)c1Cl (stereo unspecified) + CNC(C)C(=O)NC1CN(S(=O)(=O)c2cccc(S(=O)(=O)N3CCC4CCC(C(=O)NC(c5ccccc5)c5ccccc5)N4C(=O)C(NC(=O)C(C)NC)C3)c2)CCC2CCC(C(=O)NC(c3ccccc3)c3ccccc3)N2C1=O,IC50,second compound 0.00316 µM,> 3 µM
same,IC50,second compound 0.01 µM,> 3 µM
same,IC50,second compound 0.0316 µM,> 3 µM
same,IC50,second compound 0.1 µM,> 3 µM
same,IC50,second compound 0.316 µM,> 3 µM
same,IC50,second compound 1 µM,> 3 µM
same,"viability, T/C","second compound 0.00316 µM, first compound 0.00949 µM",106%
same,"viability, T/C","second compound 0.00316 µM, first compound 0.03 µM",84.2%
same,"viability, T/C","second compound 0.00316 µM, first compound 0.0949 µM",85.5%
same,"viability, T/C","second compound 0.00316 µM, first compound 0.3 µM",86.6%
same,"viability, T/C","second compound 0.00316 µM, first compound 0.949 µM",81%
same,"viability, T/C","second compound 0.00316 µM, first compound 3 µM",70.3%
same,"viability, T/C","second compound 0.01 µM, first compound 0.00949 µM",96.2%
same,"viability, T/C","second compound 0.01 µM, first compound 0.03 µM",95.6%
same,"viability, T/C","second compound 0.01 µM, first compound 0.0949 µM",83.1%
same,"viability, T/C","second compound 0.01 µM, first compound 0.3 µM",85.5%
same,"viability, T/C","second compound 0.01 µM, first compound 0.949 µM",77.1%
same,"viability, T/C","second compound 0.01 µM, first compound 3 µM",71.8%
same,"viability, T/C","second compound 0.0316 µM, first compound 0.00949 µM",95.4%
same,"viability, T/C","second compound 0.0316 µM, first compound 0.03 µM",94.7%
same,"viability, T/C","second compound 0.0316 µM, first compound 0.0949 µM",81.3%
same,"viability, T/C","second compound 0.0316 µM, first compound 0.3 µM",78.8%
same,"viability, T/C","second compound 0.0316 µM, first compound 0.949 µM",77.6%
same,"viability, T/C","second compound 0.0316 µM, first compound 3 µM",69.1%
same,"viability, T/C","second compound 0.1 µM, first compound 0.00949 µM",96.8%
same,"viability, T/C","second compound 0.1 µM, first compound 0.03 µM",87%
same,"viability, T/C","second compound 0.1 µM, first compound 0.0949 µM",89.1%
same,"viability, T/C","second compound 0.1 µM, first compound 0.3 µM",88.1%
same,"viability, T/C","second compound 0.1 µM, first compound 0.949 µM",73.2%
same,"viability, T/C","second compound 0.1 µM, first compound 3 µM",66.3%
same,"viability, T/C","second compound 0.316 µM, first compound 0.00949 µM",92.3%
same,"viability, T/C","second compound 0.316 µM, first compound 0.03 µM",92.5%
same,"viability, T/C","second compound 0.316 µM, first compound 0.0949 µM",88.8%
same,"viability, T/C","second compound 0.316 µM, first compound 0.3 µM",83%
same,"viability, T/C","second compound 0.316 µM, first compound 0.949 µM",73.6%
same,"viability, T/C","second compound 0.316 µM, first compound 3 µM",66.5%
same,"viability, T/C","second compound 1 µM, first compound 0.00949 µM",84.1%
same,"viability, T/C","second compound 1 µM, first compound 0.03 µM",82.2%
same,"viability, T/C","second compound 1 µM, first compound 0.0949 µM",82%
same,"viability, T/C","second compound 1 µM, first compound 0.3 µM",73.5%
same,"viability, T/C","second compound 1 µM, first compound 0.949 µM",69.3%
same,"viability, T/C","second compound 1 µM, first compound 3 µM",64%
Cn1ncnc1[C@H]1c2n[nH]c(=O)c3cc(F)cc(c23)N[C@@H]1c1ccc(F)cc1 + Cc1c(S(C)(=O)=O)c(-c2cc(F)cc(N3CCN(c4ccc(NS(=O)(=O)c5ccc(NC(CCN6CCC(C(=O)OCCCP(=O)(O)O)CC6)CSc6ccccc6)c(S(=O)(=O)C(F)(F)F)c5)cc4)CC3)c2)c(-c2ccc(Cl)cc2)n1C(C)C,IC50,second compound 0.0316 µM,> 0.1 µM
same,IC50,second compound 0.1 µM,> 0.1 µM
same,IC50,second compound 0.316 µM,> 0.1 µM
same,IC50,second compound 1 µM,> 0.1 µM
same,IC50,second compound 3.16 µM,> 0.1 µM
same,IC50,second compound 10 µM,< 0.000316 µM
same,"viability, T/C","second compound 0.0316 µM, first compound 0.000316 µM",100%
same,"viability, T/C","second compound 0.0316 µM, first compound 0.001 µM",91.8%
same,"viability, T/C","second compound 0.0316 µM, first compound 0.00316 µM",93.6%
same,"viability, T/C","second compound 0.0316 µM, first compound 0.01 µM",102%
same,"viability, T/C",[1],92.2%
same,"viability, T/C",[2],83%
same,"viability, T/C","second compound 0.1 µM, first compound 0.000316 µM",93%
same,"viability, T/C","second compound 0.1 µM, first compound 0.001 µM",94%
same,"viability, T/C","second compound 0.1 µM, first compound 0.00316 µM",87.2%
same,"viability, T/C","second compound 0.1 µM, first compound 0.01 µM",91.6%
same,"viability, T/C",[3],92.3%
same,"viability, T/C",[4],80.1%
same,"viability, T/C","second compound 0.316 µM, first compound 0.000316 µM",91.1%
same,"viability, T/C","second compound 0.316 µM, first compound 0.001 µM",82%
same,"viability, T/C","second compound 0.316 µM, first compound 0.00316 µM",84.5%
same,"viability, T/C","second compound 0.316 µM, first compound 0.01 µM",80.2%
same,"viability, T/C",[5],86.7%
same,"viability, T/C",[6],83.1%
same,"viability, T/C","second compound 1 µM, first compound 0.000316 µM",84.9%
same,"viability, T/C","second compound 1 µM, first compound 0.001 µM",74.4%
same,"viability, T/C","second compound 1 µM, first compound 0.00316 µM",76.6%
same,"viability, T/C","second compound 1 µM, first compound 0.01 µM",79.8%
same,"viability, T/C",[7],85.2%
same,"viability, T/C",[8],71.2%
same,"viability, T/C","second compound 3.16 µM, first compound 0.000316 µM",61.7%
same,"viability, T/C","second compound 3.16 µM, first compound 0.001 µM",58.1%
same,"viability, T/C","second compound 3.16 µM, first compound 0.00316 µM",61%
same,"viability, T/C","second compound 3.16 µM, first compound 0.01 µM",61%
same,"viability, T/C",[9],68.3%
same,"viability, T/C",[10],60.8%
same,"viability, T/C","second compound 10 µM, first compound 0.000316 µM",44.8%
same,"viability, T/C","second compound 10 µM, first compound 0.001 µM",50.5%
same,"viability, T/C","second compound 10 µM, first compound 0.00316 µM",47.6%
same,"viability, T/C","second compound 10 µM, first compound 0.01 µM",46.8%
same,"viability, T/C",[11],56.2%
same,"viability, T/C",[12],45.6%
O=C(c1cc(Cc2n[nH]c(=O)c3ccccc23)ccc1F)N1CCN(C(=O)C2CC2)CC1 + Cc1c(S(C)(=O)=O)c(-c2cc(F)cc(N3CCN(c4ccc(NS(=O)(=O)c5ccc(NC(CCN6CCC(C(=O)OCCCP(=O)(O)O)CC6)CSc6ccccc6)c(S(=O)(=O)C(F)(F)F)c5)cc4)CC3)c2)c(-c2ccc(Cl)cc2)n1C(C)C,IC50,second compound 0.0316 µM,> 10 µM
same,IC50,second compound 0.1 µM,> 10 µM
same,IC50,second compound 0.316 µM,> 10 µM
same,IC50,second compound 1 µM,> 10 µM
same,IC50,second compound 3.16 µM,> 10 µM
same,IC50,second compound 10 µM,1.16 µM
same,"viability, T/C",[1],95.1%
same,"viability, T/C",[2],90%
same,"viability, T/C","second compound 0.0316 µM, first compound 0.316 µM",93%
same,"viability, T/C","second compound 0.0316 µM, first compound 1 µM",97.3%
same,"viability, T/C","second compound 0.0316 µM, first compound 3.16 µM",93.3%
same,"viability, T/C","second compound 0.0316 µM, first compound 10 µM",86.9%
same,"viability, T/C",[3],98.3%
same,"viability, T/C",[4],86.5%
same,"viability, T/C","second compound 0.1 µM, first compound 0.316 µM",94.1%
same,"viability, T/C","second compound 0.1 µM, first compound 1 µM",91.5%
same,"viability, T/C","second compound 0.1 µM, first compound 3.16 µM",94.6%
same,"viability, T/C","second compound 0.1 µM, first compound 10 µM",81.7%
same,"viability, T/C",[5],91.5%
same,"viability, T/C",[6],90.3%
same,"viability, T/C","second compound 0.316 µM, first compound 0.316 µM",87.2%
same,"viability, T/C","second compound 0.316 µM, first compound 1 µM",85.8%
same,"viability, T/C","second compound 0.316 µM, first compound 3.16 µM",88.7%
same,"viability, T/C","second compound 0.316 µM, first compound 10 µM",77.1%
same,"viability, T/C",[7],79.4%
same,"viability, T/C",[8],76.2%
same,"viability, T/C","second compound 1 µM, first compound 0.316 µM",81.4%
same,"viability, T/C","second compound 1 µM, first compound 1 µM",79.3%
same,"viability, T/C","second compound 1 µM, first compound 3.16 µM",73.3%
same,"viability, T/C","second compound 1 µM, first compound 10 µM",74.8%
same,"viability, T/C",[9],65.4%
same,"viability, T/C",[10],59.8%
same,"viability, T/C","second compound 3.16 µM, first compound 0.316 µM",60.6%
same,"viability, T/C","second compound 3.16 µM, first compound 1 µM",67.2%
same,"viability, T/C","second compound 3.16 µM, first compound 3.16 µM",62.8%
same,"viability, T/C","second compound 3.16 µM, first compound 10 µM",54.9%
same,"viability, T/C",[11],54.8%
same,"viability, T/C",[12],48.4%
same,"viability, T/C","second compound 10 µM, first compound 0.316 µM",50.3%
same,"viability, T/C","second compound 10 µM, first compound 1 µM",51.8%
same,"viability, T/C","second compound 10 µM, first compound 3.16 µM",49.4%
same,"viability, T/C","second compound 10 µM, first compound 10 µM",48.2%
